The text below walks through data of patent US9724331B2, “Use of maleimide derivatives for preventing and treating leukemia” (CENTOGENE AG, priority 2012, dated 2017).

One assay addresses T1, recombinant human GSK3β (Homo sapiens, UniProt P49841).
T1 construct: purchased Biomol, Hamburg, Germany
Nature of the assay: GSK3β kinase activity assay (Kinase-Glo luminescence). It is filed as biochemical. How it is done:
The kinase activity assay was performed as previously described by Schmole et. al., 2010 (Schmole et al., 2010, Novel indolylmaleimide acts as GSK-3beta inhibitor in human neural progenitor cells. Bioorganic medicinal chemistry, 18, 6785-95). Briefly, recombinant human GSK3β (Biomol, Hamburg, Germany) was incubated with its substrate phospho glycogen synthase peptide 2 (pGS2) (Millipore, Billerica, USA), ATP (Cell Signaling, Frankfurt am Main, Germany) and different concentrations of PDA-66 for 30 min at 30° C. After addition of Kinase-Glo (Promega, Mannheim, Germany) and 10 min of incubation at room temperature the luminescence signal was measured with a Glomax 96 microplate reader (Promega). More specifically, recombinant human GSK3β was incubated with pGS2, ATP and different concentrations of PDA-66. […] In each experiment the concentrations of PDA-66 and the control were tested with 8 replicates. * Significant treatment effect vs. DMSO control, α=0.05.
The effect of PDA-66 on the enzyme activity of GSK3β was determined by incubation of the enzyme with a specific substrate, PDA-66 and ATP. With growing inhibitory effect there is more ATP present after the incubation. In a second step remaining ATP is converted to a luminescence signal, which is inversely proportional to the enzyme activity.
In general terms: In Kinase-Glo more light means more ATP remaining.

The subject of assay [1] is Jurkat cells. Nature of the assay: Proliferation, cell counts by trypan blue staining. It is filed as cell-based, human. On the procedure: (§1) The human B-ALL cell lines SEM, RS4;11 and the human T-ALL cell lines Jurkat and Molt-4 were purchased from DSMZ (Germany) and cultured according to manufacturer's protocol. The corresponding medium was supplemented with 10% heat-inactivated fetal bovine serum (PAA, Pasching, Austria) and 1% penicillin and streptomycin (Biochrom AG, Berlin, Germany). The Molt-4 cells were cultured with medium supplemented with 20% heat-inactivated fetal bovine serum. All cells were maintained at 37° C. in 5% CO2. Cells (5×10^5/well) were seeded in 24 well plates (Nunc, Langenselbold, Germany) and incubated for up to 72 h with PDA-66. Treated cells were harvested after 4, 24, 48 and 72 h and used for further analyses.
(§2) Cell counts were determined using the trypan blue staining. Metabolic activity was analyzed by using tetrazolium compound WST-1 (Roche, Mannheim, Germany). In brief, triplicates of cells (5×10^4/well) were seeded in 96 well plates, treated with PDA-66 and incubated with 15 μl WST-1 for up to 4 h. The mitochondrial dehydrogenases reduce WST-1 to soluble formazan and cause a change of color, which correlates with the amount of metabolically active cells. Absorbance at 450 nm and a reference wavelength at 620 nm were determined by an ELISA Reader (Anthos, Krefeld, Germany). The absorbance of culture medium with supplemented WST-1 in the absence of cells was used as background control.
(§3) The influence of PDA-66 on proliferation in ALL cell lines SEM, RS4;11, Jurkat and Molt-4 was analyzed by incubation with different concentrations of the drug (0.001 μM to 10 μM). Metabolic activity was determined using WST-1 assay. […] Results are summarized in FIG. 2, whereby the individual nine bars for each set of experiments represent, from left to right, DMSO, 0.001 μM, 0.01 μM, 0.1 μM, 0.25 μM, 0.5 μM, 1.0 μM, 5 μM and 10 μM. After 48 h of incubation an inhibition of proliferation could be observed, but was more distinct after 72 h.

The test system of assay [2] is Molt-4 cells. Description: Proliferation, cell counts by trypan blue staining. It counts as cell-based, human. How it is done: as §1, §2, §3
The subject of assay [3] is RS4;11 cells. Nature of the assay: Proliferation, cell counts by trypan blue staining. It is filed as cell-based, human. How it is done:
as §1, §2, §3

Assay [4] relates to SEM cells. Nature of the assay: Proliferation, cell counts by trypan blue staining. It counts as cell-based, human. How it is done:
as §1, §2, §3

Assay [5] concerns Jurkat cells. Nature of the assay: May Grunwald-Giemsa staining, morphology by light microscopy. Particulars: 1 μM PDA-66, 48 h, vs. DMSO treated control cells. It counts as cell-based, human. On the procedure: (§4) Cytospins of SEM and Jurkat cells were stained with May Grunwald-Giemsa Staining after 48 h of incubation with 1 μM PDA-66 and DMSO, respectively
(§5) After treatment with 1 μM PDA-66 3×10^4 cells were brought onto object slides with Cytospin 3 centrifuge (Shandon, Frankfurt/Main, Germany). Subsequently cells were stained using May-Grunwald-Giemsa staining. Briefly, slides were incubated in May-Grunwald solution (Merck, Darmstadt, Germany) for 6 min, then washed with tap water, incubated in Giemsa solution (Merck, Darmstadt, Germany) for 20 min and washed in tap water again. After letting the slides dry the cells were analyzed by Nikon Eclipse E 600 light microscope and pictures were taken with NIS Elements software (Nikon, Düsseldorf, Germany).

Assay [6] concerns SEM cells. The description is as above. It is filed as cell-based, human. The settings on record: 1 μM PDA-66, 48 h, vs. DMSO treated control cells. On the procedure: as §4, §5
For assay [7], the system named is Jurkat cells. Nature of the assay: Cell cycle analysis, propidium iodide staining, flow cytometry. Particulars: 1 μM PDA-66, mean±SD. It is filed as cell-based, human. On the procedure:
(§6) After treatment cells were harvested and washed twice in PBS. Cells were fixed with 70% ethanol and incubated with 1 mg/ml Ribonuclease A (Sigma-Aldrich, St. Louis, USA) for 30 min at 37° C. After washing the cells twice in PBS, they were stained with PI (50 μg/ml) and DNA content was determined by flow cytometry. All cell lines were incubated with PDA-66 and cell cycle distribution was determined using Propidium iodide staining.
(§7) The treatment with PDA-66 influenced the four cell lines differently. […] G2 arrest could be detected in RS4;11 and Molt-4 cells after 48 h of treatment. Treatment of Jurkat cells induced a decrease of cells in G0/G1 phase in favor of cells in S phase.
A general note: In flow cytometry, cells or beads pass a laser one at a time.

The test system of assay [8] is Molt-4 cells. Described as above. It counts as cell-based, human. How it is done: as §6, §7
The test system of assay [9] is RS4;11 cells. The description is as above. It is filed as cell-based, human. How it is done: as §6, §7
The test system of assay [10] is SEM cells. The description is as above. It is filed as cell-based, human. On the procedure:
as §6, §7

Where [11] appears, read: 0.5 μM PDA-66, 72 h, vs. DMSO control.
Where [12] appears, read: 0.5 μM or more, seeded cells 5×10^5.

Entries after “also recorded” stand apart in the source; their conditions may differ.

T1 sequence (P49841 whole entry): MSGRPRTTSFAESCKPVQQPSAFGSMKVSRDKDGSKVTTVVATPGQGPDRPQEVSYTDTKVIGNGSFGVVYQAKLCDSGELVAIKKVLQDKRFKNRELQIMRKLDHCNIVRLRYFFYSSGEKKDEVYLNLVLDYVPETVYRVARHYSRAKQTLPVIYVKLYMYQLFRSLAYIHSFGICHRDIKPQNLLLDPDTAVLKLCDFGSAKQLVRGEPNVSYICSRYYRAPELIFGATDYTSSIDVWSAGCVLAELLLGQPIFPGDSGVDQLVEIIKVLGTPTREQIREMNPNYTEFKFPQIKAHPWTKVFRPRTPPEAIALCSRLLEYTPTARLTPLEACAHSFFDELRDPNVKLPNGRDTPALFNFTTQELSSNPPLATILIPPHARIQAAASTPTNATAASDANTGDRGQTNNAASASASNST

For `CC(=O)c1ccc(C2=C(c3c(C)[nH]c4ccccc34)C(=O)N(C)C2=O)cc1` [PDA-66, 3-(4-Acetylphenyl)-1-methyl-4-(2-methyl-1H-indol-3-yl)-1H-pyrrole-2,5-dione], on recombinant human GSK3β (10 μM PDA-66), the GSK3β enzyme activity entry is “seems to enhance enzyme activity”. Also, the GSK3β kinase activity result at recombinant human GSK3β (0.25-1 μM PDA-66, 30 min at 30° C., vs. DMSO control) is listed as “significantly inhibited; also recorded: inhibition of the enzyme”. On recombinant human GSK3β (FIG. 1), the “dose response relationship of GSK3β kinase activity” value was “bell shaped dose response relationship”. For the same compound, the inhibition of proliferation result in the assay with Jurkat cells [1] (setting [11]), in the assay with Molt-4 cells [2] (setting [11]), in the assay with RS4;11 cells [3] (setting [11]) and with SEM cells [4] (setting [11]) was “significant inhibition” in each case. The cell numbers result in the assay on Jurkat cells [1] (setting [12]), in the assay on Molt-4 cells [2] (setting [12]), in the assay on RS4;11 cells [3] (setting [12]) and with SEM cells [4] (setting [12]) was “decrease in cell numbers i.e. below the amount of seeded cells” each time. For the same compound, the morphology result in the assay with Jurkat cells [5] was “condensation of chromatin in the nucleus, karyorrhexis and an increasing amount of vacuoles and cell debris”; in the assay on SEM cells [6], “condensation of chromatin in the nucleus, karyorrhexis and an increasing amount of vacuoles and cell debris”. Also, the “amount of cells in G0/G1 phase” value was determined as 47.3±4.3% with Jurkat cells [7]; 45.0±7.3% with Molt-4 cells [8] (1 μM PDA-66, 48 h, mean±SD); 47.3±2.7% in the assay with RS4;11 cells [9] (1 μM PDA-66, 48 h, mean±SD). In addition, the “amount of cells in S phase” value with Jurkat cells [7] is 20.0±1.1%. Also, the “amount of cells in G2 phase” value is 41.0±5.8% in the assay on Molt-4 cells [8] (1 μM PDA-66, 48 h, mean±SD) and 42.1±4.4% in the assay with RS4;11 cells [9] (1 μM PDA-66, 48 h, mean±SD). The “cells in G0/G1 phase” value in the assay with Molt-4 cells [8] (smaller dosages than 1 μM) and in the assay on RS4;11 cells [9] (smaller dosages than 1 μM) was “significant increase” each time. The “amount of cells in G0/G1” value in the assay on SEM cells [10] (0.5 μM PDA-66, 48 h, mean±SD) was found to be 69.3±2.7%. The “effect on cell cycle” value with SEM cells [10] (1 μM PDA-66, 48 h) was “did not affect the cell cycle significantly”.
